Earlier results as cited in patent US12569478B2 (priority 2021, dated 2026).

Conditions: in vivo

SMILES: C=CCN1CC[C@]23c4c5ccc(O)c4O[C@H]2C(=O)CC[C@@]3(O)[C@H]1C5 [naloxone]
- half-life: ~1 h
